Consider one compound from ChEMBL document CHEMBL5390201, “The Natural Alkaloid (-)-N-Hydroxyapiosporamide Suppresses Colorectal Tumor Progression as an NF-κB Pathway Inhibitor by Targeting the TAK1-TRAF6 Complex” (J Nat Prod, 2023).

Calls of active or inactive are those of the source. No cut-off for these calls is given here.

In assay [1] the test system is HT-29. Briefly: Induction of apoptosis in human HT-29 cells assessed as necrotic cells at 1 uM incubated for 24 hrs by Annexin V-FITC/PI staining based flow cytometric analysis (reference value: 0.14 %). It is filed as functional. On the technique in general: Flow cytometry measures light scatter and fluorescence of single cells or particles in a stream.
Assay [2] relates to HT-29. Briefly: Induction of autophagy in human HT-29 cells assessed as increase in LC3 protein expression at 1 to 10 uM incubated for 24 hrs by Western blot analysis. It is filed as functional, cell-based. As to conditions: dose 1-10 µM. On the technique in general: In western blotting, separated proteins are transferred to a membrane and probed.
For assay [3], the system named is HCT-116. Briefly: Induction of apoptosis in human HCT-116 cells assessed as late apoptotic cells at 0.25 uM incubated for 24 hrs by Annexin V-FITC/PI staining based flow cytometric analysis (reference value: 2.9 %). It is filed as functional.
For assay [4], the system named is HT-29. Briefly: Induction of autophagic cell death in human HT-29 cells at 1 to 10 uM pretreated with 3-methyladenine for 1 hr followed by compound addition and measured after 24 hrs by SRB assay. It is filed as functional, cell-based. As to conditions: dose 1-10 µM. On the technique in general: In SRB staining, fixed cells bind dye roughly in proportion to their protein.

Assay [5] relates to HT-29. Briefly: Induction of cell cycle arrest in human HT-29 cells assessed as decrease in Cdc25c protein expression upto 10 uM incubated for 24 hrs by Western blot analysis. It is filed as functional, cell-based.
The test system of assay [6] is Mus musculus. As to the kind of experiment: In vivo inhibition of NFkappaB activation in athymic BALB/c mouse xenografted with human HCT-116 cells assessed as reduction in MCP-1 gene expression in tumor at 15 mg/kg, ip administered every other day and measured after 14 days by qRT-PCR analysis. It is filed as functional, organism-based. As to conditions: time 14.0 day.

For assay [7], the system named is HCT-116. As to the kind of experiment: Induction of apoptosis in human HCT-116 cells assessed as necrotic cells at 5 uM preincubated with Z-VAD-FMK for 1 hr followed by compound addition and measured after 24 hrs by Annexin V-FITC/PI staining based flow cytometric analysis (reference value: 0.34 %). It is filed as functional.
Assay [8] concerns HT-29. Briefly: Induction of apoptosis in human HT-29 cells assessed as necrotic cells at 0.25 uM incubated for 24 hrs by Annexin V-FITC/PI staining based flow cytometric analysis (reference value: 0.14 %). It is filed as functional.
For assay [9], the system named is Mus musculus. As to the kind of experiment: Anti-inflammatory activity in AOM/DSS-induced BALB/c mouse model inflammatory bowel disease assessed as reduction in colon thickness at 5 to 10 mg/kg, ip pretreated with AOM for 7 days further replaced with DSS for 7 days and repeated for 2 times followed by every 2 days compound treatment for […] starting from day 50 and measured once a week. As to conditions: dose 5-10 mg/kg, time 21.0 day. It is filed as functional, organism-based.

With `C[C@@H]1CC[C@H]2[C@H](C(=O)c3c(O)c([C@@]4(O)CC[C@@H](O)[C@H]5O[C@H]54)cn(O)c3=O)[C@H](C)C=C[C@@H]2C1`, the Activity is listed as 0.4% with HT-29 [1], 28.1% in the assay with HCT-116 [3], 0.39% in the assay with HCT-116 [7] and 0.1% in the assay with HT-29 [8]. Besides, the outcome in the assay with HT-29 [2], in the assay with HT-29 [5] and in the assay on Mus musculus [9] was Active. In the assay on HT-29 [4], the result was inactive. Moreover, in the assay on Mus musculus [6], the inhibition result is “Active”.
